Columns and labels:
[1] = test system: rats subjected to sciatic nerve CCI; experiment: Chronic constrictive injury (CCI) of the sciatic nerve, thermal hyperalgesia, paw withdrawal test; type: in vivo, rat; conditions: for increase in latency of paw withdrawal: since the 3rd day of treatment
Method: The chronic constrictive injury (CCI) was induced by sciatic nerve ligation according to the method described by Bennett and Xie [Bennett. G. J.; Xie, Y. K. Pain […], 33: 87-107]. Male Wistar rats, weighing 180-240 g, were anesthetized with a mixture of ketamine and xylazine (60 mg/kg and 5 mg/kg, respectively), intraperitoneally. Through an incision of 0.5 cm (parallel and spaced about 10 mm from the left femur) the sciatic nerve was identified. With a thin glass rod, a small segment of sciatic nerve was exposed and four loosely ligatures were placed around the sciatic nerve spaced 1 mm each other using a 3-0 silk suture thread. After the procedure, the skin was sutured and a topical antiseptic was applied.
To assess animal behavior in response to hyperalgesic phenomenon resulting from sciatic nerve chronic constrictive injury, the model described by Hargreaves and Dubner was used [Hargreaves K., Dubner R., Brown F., Flores C., Joris J. Pain 1988, 32 (1): 77-88]. In this regard, paw withdrawal in response to a painful phenomenon was performed. This is a nociceptive test which involves a peripheral short thermal stimulus induced by the radiant heat of an incandescent lamp bulb. […] Radiant heat has an advantage over the other modes of thermal stimulation in that it produces no tactile stimulus. [Le Bars D., Gozariu M., Cadden S. W. Pharmacology Reviews, 2001, 53 (4), 597-652]. In this assay, a plantar test analgesimeter (ITC Life Science Inc, USA) was used.
Animals were placed in transparent acrylic boxes with tempered glass pane floor for 40 minutes to acclimate. After this period, the radiant heat was applied to the footpads of animals's hindpaws until they make the movement of paw withdrawal. The paw withdrawal latency was defined as the time recorded from the beginning of the radiant heat stimulus and the paw withdrawal. For each paw, three latency records were made, and the average value was used to define the paw withdrawal time control The maximum time that each animal was exposed to the radiant heat source (cut-off) was defined as three times the paw withdrawal time control, to avoid tissue injuries in animals's paws.
The day before surgery, rats, defined as “control before surgery”, were placed in acrylic boxes to the paw withdrawal test. On the 7th day after the surgery (CCI), the paw withdrawal test was again performed in order to verify neuropathic pain has been effectively developed in the left paw—defined as “post-surgery control.”
The paw withdrawal test was assessed during the days 1, 3, and 7 of the treatment (with amitriptyline hydrochloride or the compounds of examples of the instant invention) and on days 1, 3, and 7 after treatment interruption.
(§1) Differences were considered significant when p<0.05.

[2] = test system: rats subjected to SNL; experiment: Spinal nerve ligation (SNL) L5 model, thermal hyperalgesia; type: in vivo, rat; conditions: for effect on thermal hyperalgesia after treatment interruption: after 7 days of 32.25 μmol/kg ip; for paw withdrawal latency, thermal hyperalgesia: after 7 days of treatment; for reversal of hyperalgesia signs associated with neuropathic pain: ip during 7 days, 32.25 μmol/kg
Method: (§2) This experimental model was proposed by Kim and Chung [Kim, S. H.; Chung, J. M. Pain 1992, 50: 355-363] and consists of ligation of spinal nerves. Male Wistar rats, 180-220 g, were anesthetized with a mixture of ketamine and xylazine (60 mg/kg and 5 mg/kg, respectively) intraperitoneally. After the dorsal region asepsy, an incision was made between L5 and S1. The L6 transverse process was removed for locating the nerves L4 and L5, which were carefully isolated, and tight ligation of the L5 nerve with 6.0 silk thread was made, interrupting flow of the axon of the nerve. After this procedure, para-spinal muscles and skin were sutured, and then a topical antiseptic was applied. False operated animals (sham) were subjected to the same procedure, however the spinal nerve was not ligated.
This method aims to evaluate the animal behavior in response to hyperalgesic phenomenon resulting from the injury induced by the ligament of spinal nerve (L5). In this regard, paw withdrawal in response to thermal stimulus was used, and the thermal stimulus was induced by the radiant heat of an incandescent lamp bulb. The paw withdrawal test was performed as described for the assessment of thermal hyperalgesia in the sciatic nerve chronic constrictive injury model.
as §1
(§3) The treatment started on the 7th day after surgery. Compounds were diluted in water or DMSO and administered through intraperitoneal route on daily basis, during 7 days, at a dose of […]. The effectiveness of tested compounds was assessed on days 1, 3, and 7 days after treatment, always before the next administration of the compound. Latencies were also assessed on days 1, 3, and 7 after treatment interruption.

[3] = test system: rats subjected to SNL; experiment: Spinal nerve ligation (SNL) L5 model, mechanical allodynia (digital Von Frey); type: in vivo, rat; conditions: for reversal of allodynia signs associated with neuropathic pain: ip during 7 days, 32.25 μmol/kg; for paw withdrawal threshold, mechanical allodynia: after 3 days of treatment, 32.25 μmol/kg ip, p<0.05
Method: as §2
To evaluate the development of mechanical allodynia, digital analgesimeter (Model EFF301; Insight Equipments), digitalized version coupled to a pointed filament (Von Frey model variant) was used. This test aims to assess changes in tactile sensitivity in response to a mechanical stimulus as a result of a neural damage. The device consisted of a hand-held force transducer fitted with a sensor tip, through which a pressure with increasing strength is applied against the footpad of the animals hindpaw to assess the threshold of paw withdrawal, that is, the digital analgesimeter records the maximal strength, in grams (g), in which the animal withstands until the paw withdrawal reflex.
Animals were placed in individual acrylic boxes and let to acclimate for 30 min before the beginning of the test. After this period, the thresholds of hindpaw withdrawal were determinded. For each hindpaw, five records of the withdrawal thresholds were made, and the average for each hindpaw was defined as the paw withdrawal threshold control.
as §3, §1

[4] = test system: Swiss mice; experiment: Hot plate model, assay for acute pain; type: in vivo; conditions: ip, 32.25 μmol/kg
[5] = first day of treatment, 32.25 μmol/kg ip
[6] = 32.25 μmol/kg ip, p<0.05 or p<0.005

Compound | antinociceptive effect, paw withdrawal latency vs post-surgery control [1, 5] | increase in latency of paw withdrawal [1, 6] | effect on thermal hyperalgesia after treatment interruption [2] | paw withdrawal latency, thermal hyperalgesia ([2]; 32.25 μmol/kg ip) | reversal of hyperalgesia signs associated with neuropathic pain [2] | reversal of allodynia signs associated with neuropathic pain [3] | side effects compared to morphine [4] | paw withdrawal threshold, mechanical allodynia [3] | onset of significant increase in latency ([1]; 5 mg/kg ip) | reversal of signs of thermal hyperalgesia ([1]; 5 mg/kg ip during 7 days) | onset of significant increase in latency ([1]; 10 mg/kg ip) | reversal of signs of thermal hyperalgesia ([1]; 10 mg/kg ip during 7 days) | increase in paw withdrawal latency ([2]; since the first day of treatment, 32.25 μmol/kg ip) | analgesic effect on mechanical allodynia after treatment interruption ([3]; after 7 days of 32.25 μmol/kg ip) | latency increase, statistical significance ([1]; first day of treatment, 32.25 μmol/kg ip, p<0.05 or p<0.005)
Cl.OC1(c2ccc(Cl)cc2)CCN(CCc2conc2-c2ccc(F)cc2)CC1 [C15, 4-(4-chlorophenyl)-1-{2-[3-(4-fluorophenyl)-1,2-oxazol-4-yl]ethyl}piperidin-4-ol hydrochloride] | antinociceptive effects in the first day of treatment | statistically significant increase in latency of paw withdrawal | maintained for 1 day after treatment interruption | statistically significant antinociceptive effect | effective in reverse the hyperalgesia and allodynia signs | effective in reverse the hyperalgesia and allodynia signs | no side effects of conventional morphine |  |  |  |  |  |  |  | 
CN1CCN(CCc2c[nH]nc2-c2ccc(F)cc2)CC1.Cl.Cl.Cl.O.O [C11, 1-{2-[3-(4-fluorophenyl)-1H-pyrazol-4-yl]ethyl}-4-methylpiperazine trihydrochloride dihydrate] | antinociceptive effects in the first day of treatment | statistically significant increase in latency of paw withdrawal |  | statistically significant antinociceptive effect | effective in reverse the hyperalgesia and allodynia signs | effective in reverse the hyperalgesia and allodynia signs | no side effects of conventional morphine | significant (p<0.05) paw withdrawal threshold |  |  |  |  |  |  | 
Cl.Cl.Fc1ccc(-c2n[nH]cc2CCN2CCCCC2)cc1.O [C3, 1-{2-[3-(4-fluorophenyl)-1H-pyrazol-4-yl]ethyl}piperidine dihydrochloride monohydrate] | antinociceptive effects in the first day of treatment | statistically significant increase in latency of paw withdrawal | still observed up to 1 day after treatment interruption |  |  |  | no side effects of conventional morphine | significant (p<0.05) paw withdrawal threshold | significant increase in latency starting on day 3 of treatment | effective in reversing the signs of thermal hyperalgesia | significant increase in latency starting on day 3 of treatment | effective in reversing the signs of thermal hyperalgesia | statistically significant increase in paw withdrawal latency | analgesic effect is maintained until the first day after treatment interruption | 
Cl.Cl.Fc1ccc(-c2n[nH]cc2CCN2CCOCC2)cc1.O [C9, 4-{2-[3-(4-fluorophenyl)-1H-pyrazol-4-yl]ethyl}morpholine dihydrochloride monohydrate] |  | statistically significant increase in latency of paw withdrawal |  | statistically significant antinociceptive effect | effective in reverse the hyperalgesia and allodynia signs | effective in reverse the hyperalgesia and allodynia signs | no side effects of conventional morphine |  |  |  |  |  |  |  | 
CCOC(=O)C1(c2ccccc2)CCN(CCc2conc2-c2ccc(F)cc2)CC1.Cl [C17, Ethyl 1-{2-[3-(4-fluorophenyl)-1,2-oxazol-4-yl]ethyl}-4-phenylpiperidine-4-carboxylate hydrochloride] | antinociceptive effects in the first day of treatment |  |  | statistically significant antinociceptive effect | effective in reverse the hyperalgesia and allodynia signs | effective in reverse the hyperalgesia and allodynia signs | no side effects of conventional morphine |  |  |  |  |  |  |  | the latency increase was statistically significant

— patent publication US20150266864A1, “HETEROAROMATIC COMPOUNDS, METHOD FOR PREPARING THE COMPOUNDS, PHARMACEUTICAL COMPOSITIONS, USES AND METHOD FOR TREATING ACUTE AND CHRONIC PAIN” (CRISTÁLIA PRODUTOS QUÍMICOS FARMACÊUTICOS LTDA, priority 2012, published 2015)
